Measurements: patent US8163758B2 (Parion Sciences, Inc., priority 2006, dated 2012)
Structures can show the parent of a compound that is named as a salt.

How the values were obtained:
[1] = molecular target: T1, epithelial sodium channel (ENaC) (Canis lupus familiaris, UniProt A0A8I3MKE6+A0A8I3Q679+Q95165); assay: ENaC blocking activity, short circuit current in airway epithelial monolayers in Ussing chambers; assay type: cell-based; details: canine bronchial epithelia; for ENaC blocking potency relative to Amiloride: fold potency versus amiloride; for IC50: lumenal addition, propranolol 10 μM applied first
T1 construct: endogenous in cells; host or cells: primary canine bronchial epithelial cells cultured at air-liquid interface
T1 sequence (A0A8I3Q679 1-649): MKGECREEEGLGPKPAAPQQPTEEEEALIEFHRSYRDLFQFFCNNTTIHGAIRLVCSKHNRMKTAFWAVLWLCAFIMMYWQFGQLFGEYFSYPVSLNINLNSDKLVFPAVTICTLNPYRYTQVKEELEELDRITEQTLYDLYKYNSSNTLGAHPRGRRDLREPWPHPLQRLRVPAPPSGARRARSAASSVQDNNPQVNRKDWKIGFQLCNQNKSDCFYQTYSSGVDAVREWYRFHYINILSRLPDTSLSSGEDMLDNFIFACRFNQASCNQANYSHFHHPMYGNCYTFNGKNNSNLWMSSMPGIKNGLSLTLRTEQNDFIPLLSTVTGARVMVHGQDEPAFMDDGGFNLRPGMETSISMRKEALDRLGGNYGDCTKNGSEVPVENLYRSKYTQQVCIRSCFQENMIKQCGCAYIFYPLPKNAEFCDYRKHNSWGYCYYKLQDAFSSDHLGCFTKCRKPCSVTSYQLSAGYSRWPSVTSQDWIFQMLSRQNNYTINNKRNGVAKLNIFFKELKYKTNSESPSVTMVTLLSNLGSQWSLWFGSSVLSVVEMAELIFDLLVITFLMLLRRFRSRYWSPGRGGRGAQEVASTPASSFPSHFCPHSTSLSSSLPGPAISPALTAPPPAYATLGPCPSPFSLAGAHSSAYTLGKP
T1 sequence (Q95165 1-641): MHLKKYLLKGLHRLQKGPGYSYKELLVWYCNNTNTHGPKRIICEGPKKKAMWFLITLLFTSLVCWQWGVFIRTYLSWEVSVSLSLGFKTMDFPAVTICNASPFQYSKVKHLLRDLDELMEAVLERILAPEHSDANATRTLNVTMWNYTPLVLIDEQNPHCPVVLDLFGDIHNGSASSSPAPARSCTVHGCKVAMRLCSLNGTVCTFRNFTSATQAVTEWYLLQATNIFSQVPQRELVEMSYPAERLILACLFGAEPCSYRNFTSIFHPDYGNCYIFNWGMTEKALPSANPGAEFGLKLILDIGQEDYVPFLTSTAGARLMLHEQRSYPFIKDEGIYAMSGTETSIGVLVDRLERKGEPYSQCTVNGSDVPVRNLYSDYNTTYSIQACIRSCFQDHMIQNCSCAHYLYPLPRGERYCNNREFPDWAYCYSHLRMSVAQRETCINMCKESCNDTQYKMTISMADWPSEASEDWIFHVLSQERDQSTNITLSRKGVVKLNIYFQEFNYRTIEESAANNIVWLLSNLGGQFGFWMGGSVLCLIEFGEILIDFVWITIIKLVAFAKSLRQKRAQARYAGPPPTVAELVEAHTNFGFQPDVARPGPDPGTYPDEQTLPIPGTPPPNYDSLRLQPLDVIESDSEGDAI
T1 sequence (A0A8I3MKE6 1-646): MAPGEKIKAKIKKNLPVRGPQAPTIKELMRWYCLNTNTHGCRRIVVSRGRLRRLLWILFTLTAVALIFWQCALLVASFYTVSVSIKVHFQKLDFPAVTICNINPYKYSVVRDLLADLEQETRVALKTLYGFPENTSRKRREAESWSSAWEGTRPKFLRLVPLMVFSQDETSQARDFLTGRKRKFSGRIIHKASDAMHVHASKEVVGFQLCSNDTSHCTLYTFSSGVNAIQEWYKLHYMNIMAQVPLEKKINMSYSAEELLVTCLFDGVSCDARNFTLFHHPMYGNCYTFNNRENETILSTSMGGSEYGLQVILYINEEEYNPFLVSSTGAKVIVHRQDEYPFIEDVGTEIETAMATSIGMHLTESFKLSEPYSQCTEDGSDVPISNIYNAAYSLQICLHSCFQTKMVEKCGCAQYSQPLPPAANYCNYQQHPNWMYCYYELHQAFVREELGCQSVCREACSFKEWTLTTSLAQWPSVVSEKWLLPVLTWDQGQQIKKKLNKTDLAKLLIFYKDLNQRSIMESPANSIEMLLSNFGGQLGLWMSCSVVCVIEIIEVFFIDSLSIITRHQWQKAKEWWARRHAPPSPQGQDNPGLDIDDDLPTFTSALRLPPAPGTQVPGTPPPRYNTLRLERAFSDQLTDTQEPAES
Experimental: To assess epithelial sodium channel blocker potency the compounds of the present invention involves the determination of lumenal drug inhibition of airway epithelial sodium currents measured under short circuit current (ISC) using airway epithelial monolayers mounted in Ussing chambers. Cells obtained from freshly excised human, or dog airways are seeded onto porous 0.4 micrometer Transwell® Permeable Supports (Corning Inc. Acton, Mass.), cultured at air-liquid interface (ALI) conditions in hormonally defined media, and assayed for sodium transport activity (ISC) while bathed in Krebs Bicarbonate Ringer (KBR) in Ussing chambers. All test drug additions are to the lumenal bath with approximately half-log dose additions (from 1×10^−11 M to 6×10^−5 M), and the cumulative change in ISC (decreases) recorded. All drugs are prepared in dimethyl sulfoxide as stock solutions at a concentration of approximately 1×10^−2 and stored at −20° C. Six preparations are typically run in parallel; one preparation per run incorporates 552-02 as a positive control. Before the start of the concentration-effect relationship propranolol, a non-selective […], was applied to the lumenal bath (10 μM) to inhibit the beta agonist component of the designer multiple ligand (DML). All data from the voltage clamps are collected via a computer face and analyzed off-line.
Concentration-effect relationships for all compounds are considered and analyzed Using GraphPad Prism version 3.00 for Windows, GraphPad Software, San Diego Calif. USA. IC50 values, […], are calculated and compared to the 552-02 potency as a positive control.

[2] = molecular target: T2, beta-adrenergic receptor (Canis lupus familiaris, UniProt P54833); assay: Beta agonist activity, anion secretion short circuit current in airway epithelial monolayers in Ussing chambers; assay type: cell-based, canine
T2 construct: endogenous in cells; host or cells: primary canine bronchial epithelial cells cultured at air-liquid interface
T2 sequence (P54833 whole entry): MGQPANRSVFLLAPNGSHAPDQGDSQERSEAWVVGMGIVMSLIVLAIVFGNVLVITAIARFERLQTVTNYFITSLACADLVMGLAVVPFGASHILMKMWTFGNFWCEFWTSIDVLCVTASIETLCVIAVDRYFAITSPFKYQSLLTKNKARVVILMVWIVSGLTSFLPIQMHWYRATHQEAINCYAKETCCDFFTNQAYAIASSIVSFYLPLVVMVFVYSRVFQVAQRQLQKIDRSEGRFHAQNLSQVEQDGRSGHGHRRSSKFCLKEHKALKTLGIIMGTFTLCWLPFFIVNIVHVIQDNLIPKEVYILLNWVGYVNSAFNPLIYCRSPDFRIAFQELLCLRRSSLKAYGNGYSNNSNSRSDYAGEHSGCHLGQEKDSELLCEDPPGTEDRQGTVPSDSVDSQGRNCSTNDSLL
Experimental: To assess beta agonist activity the compounds of the present invention involves the determination of lumenal drug addition to promote airway epithelial anion currents measured under short circuit current (ISC) using airway epithelial monolayers mounted in Ussing chambers. Cells obtained from freshly excised human, dog, or sheep airways are seeded onto porous 0.4 micron Transwell® Permeable Supports (Corning), cultured at air-liquid interface (ALI) conditions in hormonally defined media, and assayed for anion secretion (ISC) while bathed in Krebs Bicarbonate Ringer (KBR) in Ussing chambers. All test drug additions are to the lumenal bath with approximately half-log dose additions (from 8×10^−10 M to 6.5×10^−5 M), and the cumulative change in ISC (excitation) recorded. All drugs are prepared in dimethyl sulfoxide as stock solutions at a concentration from 1×10^−1 to 1×10^−2 M and stored at −20° C. […] Before the start of the concentration-effect relationship 552-02 a potent sodium channel blocker was applied to the apical surface (1 μM) to eliminate changes in Isc caused by sodium absorption. All data from the voltage clamps are collected via a computer interface and analyzed off-line.
Concentration-effect relationships for all compounds are considered and analyzed Using GraphPad Prism version 3.00 for Windows, GraphPad Software, San Diego Calif. USA.

Compound	melting point	ENaC blocking potency relative to Amiloride [1] [× Amiloride]	IC50 [1] [nM]	EC50 [2] [nM]
C[C@H](CCCc1ccc(CCCCNC(=N)NC(=O)c2nc(Cl)c(N)nc2N)cc1)NC[C@H](O)c1ccc(O)c(NC=O)c1 (as salt: lactate) (hydrate or solvate) [Compound 30, N-(5-{2-[4-(4-{4-[N′-(3,5-diamino-6-chloropyrazine-2-carbonyl)-guanidino]butyl}phenyl)-1-methylbutylamino]-1-(R)-hydroxyethyl}-2-hydroxyphenyl)formamide]	116 to 119 °C	–	–	–
N=C(NCCCCc1ccc(CCCCN(C[C@H](O)c2ccc(O)c(NC=O)c2)C[C@H](O)c2ccc(O)c(NC=O)c2)cc1)NC(=O)c1nc(Cl)c(N)nc1N (as salt: salt) [Compound 14, N-{4-[4-(4-{bis-[2-(R)-hydroxy-2-(4-hydroxy-3-formylaminophenyl)-ethyl]amino}butyl)phenyl]butyl}-N′-(3,5-diamino-6-chloropyrazine-2-carbonyl)-guanidine diacetic acid salt]	128 to 130 °C	–	–	–
N=C(NCCCCc1ccc(CCCCNC[C@H](O)c2ccc(O)c(NC=O)c2)cc1)NC(=O)c1nc(Cl)c(N)nc1N [Compound 12, N-(5-{2-[4-(4-{4-[N′-(3,5-diamino-6-chloropyrazine-2-carbonyl)guanidino]butyl}phenyl)butylamino]-1-(R)-hydroxyethyl}-2-hydroxyphenyl)formamide]	138 to 140 °C	132	5.7	151
N=C(NCCCCc1ccc(CCCCN(C[C@H](O)c2ccc(O)c(NC=O)c2)C[C@H](O)c2ccc(O)c(NC=O)c2)cc1)NC(=O)c1nc(Cl)c(N)nc1N [Compound 14, N-{4-[4-(4-{bis-[2-(R)-hydroxy-2-(4-hydroxy-3-formylaminophenyl)-ethyl]amino}butyl)phenyl]butyl}-N′-(3,5-diamino-6-chloropyrazine-2-carbonyl)-guanidine diacetic acid salt]	–	66	17.7	–
N=C(NCCCCc1ccc(OCCNC[C@H](O)c2ccc(O)c(NC=O)c2)cc1)NC(=O)c1nc(Cl)c(N)nc1N [Compound 19, N-(5-{2-[2-(4-{4-[N-(3,5-diamino-6-chloropyrazine-2-carbonyl)guanidine]butyl}phenoxy)ethylamino]-1-(R)-hydroxylethyl}-2-hydroxyphenyl)-formamide]	120 to 124 °C (dec.)	120	10	–
C[C@H](CCCc1ccc(CCCCNC(=N)NC(=O)c2nc(Cl)c(N)nc2N)cc1)NC[C@H](O)c1ccc(O)c(NC=O)c1 [Compound 30, N-(5-{2-[4-(4-{4-[N′-(3,5-diamino-6-chloropyrazine-2-carbonyl)-guanidino]butyl}phenyl)-1-methylbutylamino]-1-(R)-hydroxyethyl}-2-hydroxyphenyl)formamide]	120 to 121 °C (dec.)	93	8.4	71.6

Now from value to compound:

melting point	ENaC blocking potency relative to Amiloride [1] [× Amiloride]	IC50 [1] [nM]	EC50 [2] [nM]	Compound
46 to 50 °C (dec.)	–	–	–	CC(=O)Nc1cc([C@@H](O)CNC(C)CCCc2ccc(CCCCNC(=N)NC(=O)c3nc(Cl)c(N)nc3N)cc2)ccc1O (stereo in doubt) (as salt: lactate) [Compound 175, N—(N-(4-(4-((S)-4-((R)-2-(3-acetamido-4-hydroxyphenyl)-2-hydroxyethylamino)pentyl)phenyl)butyl)carbamimidoyl)-3,5-diamino-6-chloropyrazine-2-carboxamide di-L-lactate]
148 to 150 °C	–	21.6	–	CS(=O)(=O)Nc1cc([C@@H](O)CN(CCCCc2ccc(CCCCNC(=N)NC(=O)c3nc(Cl)c(N)nc3N)cc2)C[C@H](O)c2ccc(O)c(NS(C)(=O)=O)c2)ccc1O [Compound 42, N-[5-(2-{[4-(4-{4-[N′-(3,5-diamino-6-chloropyrazine-2-carbonyl)-guanidino]butyl}phenyl)butyl]-[2-(R)-hydroxy-2-(4-hydroxy-3-methanesulfonyl-aminophenyl)ethyl]amino}-1-(R)-hydroxyethyl)-2-hydroxyphenyl]methane-sulfonamide]
–	154	6.5	–	N=C(NCCCCc1ccc(CCCCNC[C@H](O)c2ccc(O)c(CO)c2)cc1)NC(=O)c1nc(Cl)c(N)nc1N [Compound 63, N-(3,5-diamino-6-chloropyrazine-2-carbonyl)-N′-[4-(4-{4-[2-(R)-hydroxy-2-(4-hydroxy-3-hydroxymethylphenyl)ethylamino]butyl}phenyl)butyl]-guanidine]
–	29	22.2	–	N=C(NCCCCc1ccc(CCCCN(C[C@H](O)c2ccc(O)c(CO)c2)C[C@H](O)c2ccc(O)c(CO)c2)cc1)NC(=O)c1nc(Cl)c(N)nc1N [Compound 67, N-{4-[4-(4-{bis-[2-(R)-hydroxy-2-(4-hydroxy-3-hydroxymethylphenyl)-ethyl]amino}butyl)-phenyl]butyl}-N′-(3,5-diamino-6-chloropyrazine-2-carbonyl)-guanidine]
82 to 86 °C	–	–	–	CC(CCCc1ccc(CCCCNC(=N)NC(=O)c2nc(Cl)c(N)nc2N)cc1)NC[C@H](O)c1cccc(O)c1 (stereo partly drawn) [Compound 143, 3,5-diamino-6-chloro-N-{N-[4-(4-{4-[(R)-2-hydroxy-2-(3-hydroxyphenyl)ethylamino]pentyl}phenyl)butyl]carbamimidoyl}pyrazine-2-carboxamide]
